Measured values reported in ChEMBL document CHEMBL3751832, “Synthesis, in vitro and computational studies of 1,4-disubstituted 1,2,3-triazoles as potential α-glucosidase inhibitors” (Bioorg Med Chem Lett, 2016).
Where a name gives a salt, the structure may show the parent alone.

Test: Inhibition of yeast type-3 alpha-glucosidase using p-nitrophenyl-alpha-D-glucopyranoside as substrate after 30 mins
Set-up: species or system Saccharomyces cerevisiae

| SMILES | IC50 [µM] |
| --- | --- |
| O=[N+]([O-])c1ccc(-n2cc(-c3ccccc3)nn2)cc1 | 235 |
| Clc1ccccc1-n1cc(-c2ccccc2)nn1 | 57.2 |
| N#Cc1cc([N+](=O)[O-])ccc1-n1cc(C2(O)CCCCC2)nn1 | 49.7 |
| CC(=O)c1cccc(-n2cc(C3(O)CCCCC3)nn2)c1 | 320 |
| COc1cccc(-n2cc(C3(O)CCCCC3)nn2)c1 | 245 |
| CC(=O)c1cccc(-n2cc(-c3ccccc3)nn2)c1 | 265 |
| CC(=O)c1ccccc1-n1cc(-c2ccccc2)nn1 | 313 |

The remaining lines, values ahead:

| IC50 [µM] | SMILES |
| --- | --- |
| 255 | COC(=O)Cn1cc(-c2ccccc2)nn1 |
| 370 | OC1(c2cn(-c3ccccc3Cl)nn2)CCCCC1 |
| 320 | O=[N+]([O-])c1ccc(-n2cc(C3(O)CCCCC3)nn2)cc1 |
| 3.49 | OC[C@H]1NC[C@H](O)[C@@H](O)[C@@H]1O [DUVOGLUSTAT HYDROCHLORIDE] |
